The results in this text go back to ChEMBL document CHEMBL1201862, “PubChem BioAssay data set” (2004).

What all share (assay): NCI anticancer screen, dose series, 48 h
Assay [1] deals with CCRF-CEM.
Assay [2] concerns HCC 2998.
In assay [3] the test system is HCT-15.
Assay [4] relates to HT-29.
The subject of assay [5] is KM12.
Assay [6] has as its system MDA-MB-231.
Assay [7] has as its system MDA-MB-435.
Assay [8] concerns MDA-N.
In assay [9] the test system is MOLT-4.
In assay [10] the test system is NCI-H522.
Assay [11] concerns OVCAR-3.
Assay [12] concerns OVCAR-5.
Assay [13] has as its system RPMI-8226.
The subject of assay [14] is SF-268.
The test system of assay [15] is SF-539.
For assay [16], the system named is SK-MEL-28.
In assay [17] the test system is SN12C.
In assay [18] the test system is SNB-19.
Assay [19] has as its system T47D.
Assay [20] deals with UO-31.

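Each compound was tested at five concentrations against cells in 96-well plates for 48 hours. The concentration for 50% growth inhibition is given as GI50.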 The source made the active and inactive calls. Cut-off read from the data, not from the text of the source: active = GI50 up to about 1.1 µM and inactive = higher. Where only a bound is given, the exact number is not on record here.

As to `COc1cc2c(cc1OC)C13CCN4CC5CCOC6CC(=O)N2C1C6C5CC43` (configuration not stated), the GI50 in assay [1] is 54.5 µM (inactive); in assay [2] it was > 100 µM (inactive); in assay [3] it was over 100 µM; in assay [4], > 100 µM (inactive); in assay [5], > 100 µM (inactive); in assay [6], > 100 µM (inactive). In addition, the GI50 in assay [7] was > 100 µM (inactive); in assay [8] it was > 100 µM (inactive); in assay [9] it was 1.81 µM (inactive); in assay [10] it was > 100 µM (inactive); in assay [11] it was > 100 µM (inactive); in assay [12] it was > 100 µM (inactive). In addition, the GI50 in assay [13], in assay [14], in [15], in assay [16], in assay [17] and in assay [18] was > 100 µM (inactive) throughout. The GI50 in assay [19] and in [20] was > 100 µM (inactive) in each case.
With `O=C1c2ccccc2C(=O)c2c(NCC(O)CO)ccc(NCC(O)CO)c21` (configuration not stated), the GI50 in assay [1] is 41.4 µM (inactive); in assay [2], 72.6 µM (inactive); in assay [3], 43.7 µM; in assay [4], 56.6 µM (inactive); in assay [6], 97.9 µM (inactive); in assay [7], > 100 µM (inactive). In addition, the GI50 in [8] was 61.2 µM (inactive); in assay [9], 32.2 µM (inactive); in assay [10] it was 67.3 µM (inactive); in [11] it was 79.6 µM (inactive); in assay [12], > 100 µM (inactive); in assay [13] it was 65 µM (inactive). The GI50 in assay [14] is 89.1 µM (inactive); in [15], 62.1 µM (inactive); in assay [16] it was > 100 µM (inactive); in assay [17] it was 71.3 µM (inactive); in assay [18], 43.2 µM (inactive); in assay [19], > 100 µM (inactive). For the same compound, the GI50 in [20] is 17.8 µM (inactive).
As to `NC(=O)N/N=C(\Cc1nc2ccc(Cl)cc2nc1O)C(=O)Nc1ccc(Cl)cc1Cl`, the GI50 is > 100 µM (inactive) in [1]; > 100 µM (inactive) in assay [2]; over 100 µM in assay [3]; > 100 µM (inactive) in [4]; > 100 µM (inactive) in [5]; > 100 µM (inactive) in assay [6]. Further, the GI50 in assay [7], in assay [8], in [9], in [10], in assay [11] and in assay [12] was > 100 µM (inactive) each time. Moreover, the GI50 in assay [13], in assay [14], in assay [15], in [16], in assay [17] and in [18] was > 100 µM (inactive) in each case. In addition, the GI50 in [19] and in assay [20] was > 100 µM (inactive) each time.
For `COC(=O)[C@]12CSC[C@H]1C[C@H](c1ccccc1OC)N2`, the GI50 in [1] was > 100 µM (inactive); in assay [2], > 100 µM (inactive); in [3] it was over 100 µM; in assay [5], > 100 µM (inactive); in assay [6], > 100 µM (inactive); in [7], > 100 µM (inactive). Also, the GI50 in assay [8], in [9], in [10], in assay [11], in assay [12] and in [13] was > 100 µM (inactive) each time. In addition, the GI50 in [14], in [15], in assay [16], in [17], in [18] and in assay [19] was > 100 µM (inactive) in each case. Besides, the GI50 in assay [20] is > 100 µM (inactive).
Take `Cc1cn2c(/C=C3/C(=O)Nc4ccccc43)c(C)nc2s1`: the GI50 was 1.03 µM (active) in assay [1]; 1.84 µM (inactive) in assay [2]; 0.679 µM in assay [3]; 0.605 µM (active) in [4]; 0.261 µM (active) in assay [5]; 1.48 µM (inactive) in assay [6]. Also, the GI50 in assay [7] was 0.138 µM (active); in assay [8], 0.165 µM (active); in assay [9] it was 0.581 µM (active); in assay [10], 1.32 µM (inactive); in assay [11], 0.787 µM (active); in assay [12], 6.55 µM (inactive). Moreover, the GI50 is 1.75 µM (inactive) in assay [13]; 3.98 µM (inactive) in assay [14]; 1.33 µM (inactive) in assay [15]; 5.96 µM (inactive) in assay [16]; 7.03 µM (inactive) in assay [17]; 3.32 µM (inactive) in assay [18]. The GI50 is 0.665 µM (active) in assay [19] and 5.6 µM (inactive) in [20].
As to `CC(C)NCC(O)c1cc(OCc2ccccc2)c(OCc2ccccc2)cc1NC(=O)CCC(=O)O` (configuration not stated), the GI50 is 2.58 µM (inactive) in assay [1]; 2.49 µM (inactive) in assay [2]; 3.24 µM in [3]; 3.75 µM (inactive) in assay [4]; 4.28 µM (inactive) in assay [5]; 8.15 µM (inactive) in [6]. For the same compound, the GI50 in [7] is 5.05 µM (inactive); in assay [8], 2.21 µM (inactive); in assay [9], 3.64 µM (inactive); in assay [10], 3.52 µM (inactive); in assay [11] it was 13.6 µM (inactive); in assay [12] it was 16.7 µM (inactive). Moreover, the GI50 in assay [13] is 2.81 µM (inactive); in [14], 10.1 µM (inactive); in [15], 16.4 µM (inactive); in assay [16], 4.08 µM (inactive); in assay [17], 11.7 µM (inactive); in assay [18] it was 12.6 µM (inactive). For the same compound, the GI50 is 10 µM (inactive) in [19] and 5.77 µM (inactive) in assay [20].
As for `O=C(/C=C/c1ccccc1)C[C@@H](O)C[C@@H]1CC=CC(=O)O1`, the GI50 in assay [1] was 1.85 µM (inactive); in assay [2], 5.93 µM (inactive); in assay [3], 10.2 µM; in [4], 5.13 µM (inactive); in assay [5] it was 4.67 µM (inactive); in assay [6], 14.4 µM (inactive). In addition, the GI50 in assay [7] was 4.86 µM (inactive); in assay [8], 4.76 µM (inactive); in [9] it was 2.65 µM (inactive); in [10] it was 2.64 µM (inactive); in assay [11] it was 3.75 µM (inactive); in [12], 20 µM (inactive). The GI50 was 2.61 µM (inactive) in assay [13]; 10.1 µM (inactive) in assay [14]; 3.57 µM (inactive) in assay [15]; 11.5 µM (inactive) in [16]; 12.5 µM (inactive) in [17]; 15.9 µM (inactive) in assay [18]. Also, the figures for the GI50 in assay [19] and in assay [20] were 10.6 µM (inactive) and 9.18 µM (inactive), respectively.
Turning to `O=C(c1cc(Cl)cc(Cl)c1)N(Cc1cccnc1)C(=S)N(Cc1cccnc1)C(=O)c1cc(Cl)cc(Cl)c1`, the GI50 in assay [1] was 17.1 µM (inactive); in assay [2] it was 19.3 µM (inactive); in assay [3] it was 25.2 µM; in [4], 31.9 µM (inactive); in assay [5] it was 24.5 µM (inactive); in assay [6], 26.5 µM (inactive). For the same compound, the GI50 is 85.9 µM (inactive) in [7]; 31.3 µM (inactive) in assay [8]; 38.9 µM (inactive) in assay [9]; 23.8 µM (inactive) in [10]; 21.7 µM (inactive) in [11]; 35.6 µM (inactive) in assay [12]. The GI50 in assay [13] was 4.37 µM (inactive); in [14], 41.3 µM (inactive); in [15] it was 23.4 µM (inactive); in assay [16], 97.3 µM (inactive); in [17] it was 41.4 µM (inactive); in assay [18], 52.6 µM (inactive). Further, the GI50 in assay [19] was 44.7 µM (inactive); in [20], 24.8 µM (inactive).
Regarding `CCOC(=O)C(=CNC(=S)c1ccncc1)C(=O)OCC`, the GI50 in assay [1] is > 100 µM (inactive); in [2], > 100 µM (inactive); in assay [3], over 100 µM; in assay [5], > 100 µM (inactive); in assay [6] it was > 100 µM (inactive); in [7] it was > 100 µM (inactive). The GI50 was > 100 µM (inactive) in assay [8]; > 100 µM (inactive) in assay [9]; > 100 µM (inactive) in assay [10]; 76.2 µM (inactive) in assay [11]; > 100 µM (inactive) in assay [12]; > 100 µM (inactive) in assay [13]. For the same compound, the GI50 in assay [14], in [15], in assay [16], in assay [17], in assay [18] and in assay [19] was > 100 µM (inactive) throughout. In [20], the GI50 is > 100 µM (inactive).
`CC1OC(OC2C(CO)OC(O[C@H]3CC[C@@]4(C)C(=CC[C@H]5[C@@H]6C[C@@H]7O[C@](O)(CC[C@@H](C)COC8OC(CO)C(O)C(O)C8O)[C@@H](C)[C@@H]7[C@@]6(C)CC[C@@H]54)C3)C(OC3OC(C)C(O)C(O)C3O)C2O)C(O)C(O)C1O` (some centres not stated): the GI50 was 2.3 µM (inactive) in assay [1]; 2.9 µM (inactive) in assay [2]; 1.89 µM in assay [3]; 1.98 µM (inactive) in assay [4]; 2.24 µM (inactive) in [5]; 6.11 µM (inactive) in assay [6]. Further, the GI50 was 3.06 µM (inactive) in [7]; 2.89 µM (inactive) in [8]; 1.58 µM (inactive) in assay [9]; 2.07 µM (inactive) in assay [10]; 12.9 µM (inactive) in [11]; 2.52 µM (inactive) in assay [12]. The GI50 in [13] was 2.34 µM (inactive); in assay [14], 3.23 µM (inactive); in [15] it was 1.95 µM (inactive); in assay [16], 2.46 µM (inactive); in [17], 2.2 µM (inactive); in [18], 2.23 µM (inactive). The figures for the GI50 in assay [19] and in assay [20] were 4.05 µM (inactive) and 2.82 µM (inactive), respectively.
